“Also recorded” adds a separate entry of the source. Structures can show the parent of a compound that is named as a salt.
Experiments:
Assay type in all cases: in vivo, rat
[1] = system: rats; test: Sleep quantity, architecture and quality by EEG/EMG telemetry; conditions: 10 mg/kg PO
Experimental: All surgical and plethysmographic studies were approved by the IACUC committee of Galleon Pharmaceuticals. The study used rats implanted with dual biopotential electrodes that permitted continuous and simultaneous telemetric recordings of electroencephalogram (EEG) and electromyogram (EMG) waveforms. Three treatment conditions were assessed for their effects on sleep quantity, architecture, and quality: baseline (drug-naïve), (31a) (10 mg/kg PO) and vehicle (equal volume PO). Baseline and (31a) treatment study days were randomized. However, vehicle alone was assessed after each rat had completed drug nave and compound (31a) evaluations.
Standard aseptic technique was used for all surgical procedures. […]
Rats with implanted telemeters were allowed to remain in their home cages during data collection. […] EEG and EMG waveforms were recorded between 8 am and 3 pm each study day. […] For each rat, the three telemetry signals (EEG, EMG, and temperature) were routed from the receiver to the PowerLab and recorded using LabChart. […]
The principal aspects of these analyses were to quantify the magnitude of the EMG signal (i.e., the animals activity level) and the relative densities of EEG delta waves (0.5 to 4 Hz; predominant in NREM sleep) and EEG theta waves (6 to 10 Hz; predominant in REM sleep) during each 4-second epoch. […]

[2] = system: rats with evoked obstructions; test: Evoked obstructive apnea model
Experimental: (§1) Two rodent models of obstructive apnea were used: one that modeled spontaneous obstructions (spontaneous obstructive apnea model) which become progressively worse over time, and another (evoked obstructive apnea model) where the investigator retained control over the variables that define OSA severity, such as apnea frequency (f OA) and apnea duration (OA t).
(§2) All animal experiments were performed according to protocols approved by the Institutional Animal Care and Use Committee (IACUC) at Galleon Pharmaceuticals, Inc. All experimental procedures were performed under general anesthesia. All experiments were non-survival procedures and animals were euthanized at the conclusion of the experiment prior to the animal recovering from anesthesia. Two rodent models of obstructive apnea were used, one that modeled spontaneous obstructions that become progressively worse over time (Spontaneous Obstructive Apnea Model), and another where the investigator retained control over the parameters that defined OSA severity, such as f OA, and OA t, and by controlling these directly also controlling of the magnitude of oxy-hemoglobin desaturation (Evoked Obstructive Apnea Model).

[3] = system: anesthetized supine rats with spontaneous obstructive apneas; test: Spontaneous obstructive apnea model
Experimental: as §1
The majority of studies were conducted using the spontaneous obstructive apnea model, where rats were positioned in dorsal recumbency (supine), and permitted to breathe spontaneously on room air. Air flow was measured continuously by whole-body plethysmography. […] OA were defined as periods of no air flow for more than 2 respiratory cycles accompanied by efforts to breathe (e.g., increased transthoracic esophageal inspiratory pressure). After neck flexion, eupnea became increasingly interrupted by clusters of upper airway obstructions (f OA 30±3 hr^−1 (mean±SEM), range: 13 to 94 hr^−1; OA t 11±3 s, range: 6 to 15 s). OA severity was further quantified by the peak change in hemoglobin oxygen saturation during an obstruction (ΔSpO2: −20±1%, range: −11 to −31%). Clustered OAs were often separated by long periods of eupneic breathing, which presumably returned when activation of a relevant afferent/effector reflex (e.g., chemoreceptor driven increased motor drive to the genioglossus muscle) reached a threshold necessary to reestablish a patent upper airway.
as §2
Rats were initially anesthetized in a rodent anesthesia induction chamber using 3% (dial setting) isoflurane in 97% oxygen (O2) for surgical instrumentation. When rats had become recumbent they were removed from the chamber and placed in dorsal recumbency (supine) on a heating pad. Anesthesia was maintained with 2% isoflurane in 98% oxygen and rats were permitted to breathe spontaneously on room air. After instrumentation, isoflurane was slowly discontinued and urethane (1.5 to 1.8 g/kg, IV) administered to maintain anesthesia without interruption. Supplemental oxygen was discontinued at this time.
The femoral artery was cannulated to permit continuous recording of arterial blood pressure and intermittent sampling of blood for pH and blood gas analyses, and single time point quantification of test article plasma concentrations. The femoral vein was cannulated to permit test compound administration and fluid support. The arterial cannula was connected to a heparinized saline filled pressure transducer. The arterial pressure waveforms were sampled at 2K/second and band-pass filtered between 0-1000 Hz. […]

CCCNc1nc(NC)nc2c(NCC(C)(C)O)nc(NC)nc12 [Compound 31a, 1-(2,6-Bis-methylamino-8-propylamino-pyrimido[5,4-d]pyrimidin-4-ylamino)-2-methyl-propan-2-ol Hydrochloride]
effects on sleep quantity, architecture, or quality [1]: not associated with any statistically significant effects | effects on sleep architecture ([1]; compared to baseline (drug-naive), FIG. 24, Hydrochloride, 10 mg/kg): No significant differences; also recorded: does not produce effects | airway (genioglossus, or GG) responses to evoked obstructions ([2]; rats, IV infusion MD 0.008 mg/kg/min 15 min then 0.002 mg/kg/min 45 min, HD 0.024 then 0.006 mg/kg/min, FIG. 21A): increases | diaphragm (DIA) responses to evoked obstructions ([2]; same rats and infusions as FIG. 21A, FIG. 21B): insignificant increases | SpO2 desaturations ([3]; FIG. 18, model not named in the legend): reduction | frequency of obstructive apneas (OA) ([3]; FIG. 19, model not named in the legend): reduction | arterial oxygen content deficit ([3]; FIG. 20, model not named in the legend): reduction | upper airway (total genioglossus EMG amplitude) response to spontaneous obstructive apneas ([3]; FIG. 22): increase | upper airway response (genioglossus activity) to spontaneous obstructive apneas ([3]; IV infusion, FIG. 23): dose-dependently increases

From patent publication US10294228B2, “Breathing control modulating compounds, and methods of making and using same” (NEURAD LTD., priority 2015, dated 2019)
